Assay results from patent publication US20110136853A1, “LIGAND WITH A BROAD SPECTRUM OF PHARMACOLOGICAL ACTIVITY, A PHARMACEUTICAL COMPOSITION, A MEDICINAL AGENT AND A METHOD OF TREATMENT” (priority 2008, published 2011).
Marks after values point to notes of the source that are not given here.

Legend:
dopamine D2L = target: T1, dopamine D2L (Homo sapiens, UniProt P14416); experiment: radioligand displacement, dopamine D2L; type: binding; conditions: human being, ligand 10 μM, duplicates
T1 construct: MDS Pharma Services (contract laboratory)
Procedure: (§1) The firm MDS Pharma Services [http://www.mdsps.com] carried out this test in duplicates at ligand concentration 10 μM by the displacement of the corresponding radioactive-labeled ligand. Test results, expressed in percent of ligand replacement (%), represented in Table 2 and in FIG. 1.

[1] = system: calcium channel of L-type, benzothiazepine; experiment: radioligand displacement, L-type calcium channel (benzothiazepine); type: binding; conditions: rat, ligand 10 μM, duplicates
Procedure: as §1

dopamine D3 = target: T2, dopamine D3 (Homo sapiens, UniProt P35462); experiment: radioligand displacement, dopamine D3; type: binding; conditions: dopamine D3, human being; ligand 10 μM, duplicates
T2 construct: MDS Pharma Services (contract laboratory)
Procedure: as §1

[2] = target: T3, dopamine transporter (DAT) (Homo sapiens, UniProt Q01959); experiment: radioligand displacement, dopamine transporter; type: binding; conditions: human being, ligand 10 μM, duplicates
T3 construct: MDS Pharma Services (contract laboratory)
Procedure: as §1

sigma σ1 = target: T4, sigma σ1 (Homo sapiens, UniProt Q99720); experiment: radioligand displacement, sigma σ1; type: binding; conditions: sigma σ1, human being; ligand 10 μM, duplicates
T4 construct: MDS Pharma Services (contract laboratory)
Procedure: as §1

sigma σ2 = target: T5, sigma σ2 (Rattus norvegicus, UniProt Q5U3Y7); experiment: radioligand displacement, sigma σ2; type: binding; conditions: ligand 10 μM, duplicates
T5 construct: MDS Pharma Services (contract laboratory)
Procedure: as §1

dopamine D2S = target: T6, dopamine D2S (Homo sapiens, UniProt P14416); experiment: radioligand displacement, dopamine D2S; type: binding; conditions: human being, ligand 10 μM, duplicates
T6 construct: MDS Pharma Services (contract laboratory)
Procedure: as §1

serotonin 5-HT7 = target: T7, serotonin 5-HT7 (Homo sapiens, UniProt P34969); experiment: radioligand displacement, serotonin 5-HT7; type: binding; conditions: serotonin 5-HT7, human being; ligand 10 μM, duplicates
T7 construct: MDS Pharma Services (contract laboratory)
Procedure: as §1

sodium channel, site 2 = experiment: radioligand displacement, sodium channel site 2; type: binding; conditions: site 2, rat, ligand 10 μM, duplicates
Procedure: as §1

adrenergic α1A = target: T8, adrenergic α1A (Rattus norvegicus, UniProt P43140); experiment: radioligand displacement, adrenergic α1A; type: binding; conditions: ligand 10 μM, duplicates
T8 construct: MDS Pharma Services (contract laboratory)
Procedure: as §1

histamine H2 = target: T9, histamine H2 (Homo sapiens, UniProt P25021); experiment: radioligand displacement, histamine H2; type: binding; conditions: histamine H2, human being; ligand 10 μM, duplicates
T9 construct: MDS Pharma Services (contract laboratory)
Procedure: as §1

serotonin 5-HT1B = target: T10, serotonin 5-HT1B (Homo sapiens, UniProt P28222); experiment: radioligand displacement, serotonin 5-HT1B; type: binding; conditions: human being, ligand 10 μM, duplicates
T10 construct: MDS Pharma Services (contract laboratory)
Procedure: as §1

serotonin 5-HT2B = target: T11, serotonin 5-HT2B (Homo sapiens, UniProt P41595); experiment: radioligand displacement, serotonin 5-HT2B; type: binding; conditions: human being, ligand 10 μM, duplicates
T11 construct: MDS Pharma Services (contract laboratory)
Procedure: as §1

[3] = target: T12, norepinephrine transporter (NET) (Homo sapiens, UniProt P23975); experiment: radioligand displacement, norepinephrine transporter; type: binding; conditions: human being, ligand 10 μM, duplicates
T12 construct: MDS Pharma Services (contract laboratory)
Procedure: as §1

adrenergic α1B = target: T13, adrenergic α1B (Rattus norvegicus, UniProt P15823); experiment: radioligand displacement, adrenergic α1B; type: binding; conditions: ligand 10 μM, duplicates
T13 construct: MDS Pharma Services (contract laboratory)
Procedure: as §1

serotonin 5-HT2C = target: T14, serotonin 5-HT2C (Homo sapiens, UniProt P28335); experiment: radioligand displacement, serotonin 5-HT2C; type: binding; conditions: human being, ligand 10 μM, duplicates
T14 construct: MDS Pharma Services (contract laboratory)
Procedure: as §1

adrenergic α2A = target: T15, adrenergic α2A (Homo sapiens, UniProt P08913); experiment: radioligand displacement, adrenergic α2A; type: binding; conditions: human being, ligand 10 μM, duplicates
T15 construct: MDS Pharma Services (contract laboratory)
Procedure: as §1

adrenergic β2 = target: T16, adrenergic β2 (Homo sapiens, UniProt P07550); experiment: radioligand displacement, adrenergic β2; type: binding; conditions: adrenergic β2, human being; ligand 10 μM, duplicates
T16 construct: MDS Pharma Services (contract laboratory)
Procedure: as §1

male mice of BALB/c line = experiment: Mice Behavior in the Elevated Plus Maze; type: in vivo; conditions: 5 minutes, FIG. 8-10
Procedure: The length of maze arms makes 30 cm, the width 5 cm, height of walls 15 cm. Two opposite arms are closed from sides and end walls with prasparent walls, the two others are lighted and opened. A mouse was placed in the maze center and during 5 minutes the number of opened and closed arm entries and the time spent by the animals in opened and closed arms were registered. On this evidence indexes of opened arms preference were calculated as a ratio of the number of opened arm entries and also duration of their stay in the opened arms to the total number of entries into all of arms and duration of stay in them. Being in normal state animals avoid opened arms (index of preference makes 0.2-0.3). Compounds with anxiolytic activity (tranquilizing activity) run this value up to 0.5-0.6 and more, and also decrease the number of defecations without changing overall physical activity (general number of arm entries).

dopamine D1 = target: T17, dopamine D1 (Homo sapiens, UniProt P21728); experiment: radioligand displacement, dopamine D1; type: binding; conditions: dopamine D1, human being; ligand 10 μM, duplicates
T17 construct: MDS Pharma Services (contract laboratory)
Procedure: as §1

serotonin 5-HT6 = target: T18, serotonin 5-HT6 (Homo sapiens, UniProt P50406); experiment: radioligand displacement, serotonin 5-HT6; type: binding; conditions: serotonin 5-HT6, human being; ligand 10 μM, duplicates
T18 construct: MDS Pharma Services (contract laboratory)
Procedure: as §1

histamine H1 = target: T19, histamine H1 (Homo sapiens, UniProt P35367); experiment: radioligand displacement, histamine H1; type: binding; conditions: histamine H1, human being; ligand 10 μM, duplicates
T19 construct: MDS Pharma Services (contract laboratory)
Procedure: as §1

T12 sequence (P23975 whole entry): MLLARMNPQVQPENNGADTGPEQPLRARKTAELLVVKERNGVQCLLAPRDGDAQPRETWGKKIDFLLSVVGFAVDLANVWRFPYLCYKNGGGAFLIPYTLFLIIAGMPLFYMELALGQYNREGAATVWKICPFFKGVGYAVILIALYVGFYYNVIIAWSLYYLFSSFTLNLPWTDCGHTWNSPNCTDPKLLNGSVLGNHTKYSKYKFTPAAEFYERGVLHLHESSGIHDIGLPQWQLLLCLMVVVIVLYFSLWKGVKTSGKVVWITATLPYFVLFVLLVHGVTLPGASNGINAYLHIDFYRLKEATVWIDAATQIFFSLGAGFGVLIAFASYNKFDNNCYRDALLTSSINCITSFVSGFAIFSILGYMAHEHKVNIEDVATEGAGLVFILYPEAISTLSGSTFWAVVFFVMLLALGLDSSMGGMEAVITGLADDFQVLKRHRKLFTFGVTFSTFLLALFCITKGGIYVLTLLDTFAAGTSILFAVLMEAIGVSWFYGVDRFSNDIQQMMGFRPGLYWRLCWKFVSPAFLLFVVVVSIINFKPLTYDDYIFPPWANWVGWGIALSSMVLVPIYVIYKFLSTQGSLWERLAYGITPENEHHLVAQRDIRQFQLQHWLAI
T18 sequence (P50406 whole entry): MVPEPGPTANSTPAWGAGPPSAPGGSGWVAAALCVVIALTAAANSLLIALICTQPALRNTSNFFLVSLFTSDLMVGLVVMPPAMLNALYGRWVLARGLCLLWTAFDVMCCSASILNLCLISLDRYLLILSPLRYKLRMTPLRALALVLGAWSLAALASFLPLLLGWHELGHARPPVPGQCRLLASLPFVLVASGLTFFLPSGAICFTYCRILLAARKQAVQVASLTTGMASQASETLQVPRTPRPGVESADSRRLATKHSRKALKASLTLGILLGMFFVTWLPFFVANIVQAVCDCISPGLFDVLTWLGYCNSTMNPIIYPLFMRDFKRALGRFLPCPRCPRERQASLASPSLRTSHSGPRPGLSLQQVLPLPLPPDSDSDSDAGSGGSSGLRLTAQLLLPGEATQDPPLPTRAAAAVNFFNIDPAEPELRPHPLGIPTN
T6 sequence (P14416 1-414 isoform P14416-2): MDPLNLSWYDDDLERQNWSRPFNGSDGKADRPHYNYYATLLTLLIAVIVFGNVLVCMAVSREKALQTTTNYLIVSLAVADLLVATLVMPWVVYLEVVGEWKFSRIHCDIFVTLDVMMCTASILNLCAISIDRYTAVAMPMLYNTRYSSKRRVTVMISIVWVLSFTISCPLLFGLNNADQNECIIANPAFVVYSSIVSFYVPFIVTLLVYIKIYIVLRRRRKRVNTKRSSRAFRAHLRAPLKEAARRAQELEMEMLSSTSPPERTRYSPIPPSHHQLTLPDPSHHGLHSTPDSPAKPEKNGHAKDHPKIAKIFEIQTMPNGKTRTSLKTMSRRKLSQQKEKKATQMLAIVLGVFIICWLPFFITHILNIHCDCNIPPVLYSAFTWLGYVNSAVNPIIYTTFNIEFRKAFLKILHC
T15 sequence (P08913 whole entry): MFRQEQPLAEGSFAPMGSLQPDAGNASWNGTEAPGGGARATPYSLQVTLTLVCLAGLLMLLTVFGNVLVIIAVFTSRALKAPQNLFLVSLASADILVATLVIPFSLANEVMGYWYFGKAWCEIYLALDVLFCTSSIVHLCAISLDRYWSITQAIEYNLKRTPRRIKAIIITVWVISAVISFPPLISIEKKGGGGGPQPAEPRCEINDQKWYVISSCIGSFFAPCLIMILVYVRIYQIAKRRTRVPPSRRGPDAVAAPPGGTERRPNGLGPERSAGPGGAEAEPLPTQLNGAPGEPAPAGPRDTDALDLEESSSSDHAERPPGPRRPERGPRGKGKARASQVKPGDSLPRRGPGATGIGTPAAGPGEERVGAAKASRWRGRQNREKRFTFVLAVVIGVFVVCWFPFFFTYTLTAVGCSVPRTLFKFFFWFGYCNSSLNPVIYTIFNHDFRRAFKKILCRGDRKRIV
T3 sequence (Q01959 whole entry): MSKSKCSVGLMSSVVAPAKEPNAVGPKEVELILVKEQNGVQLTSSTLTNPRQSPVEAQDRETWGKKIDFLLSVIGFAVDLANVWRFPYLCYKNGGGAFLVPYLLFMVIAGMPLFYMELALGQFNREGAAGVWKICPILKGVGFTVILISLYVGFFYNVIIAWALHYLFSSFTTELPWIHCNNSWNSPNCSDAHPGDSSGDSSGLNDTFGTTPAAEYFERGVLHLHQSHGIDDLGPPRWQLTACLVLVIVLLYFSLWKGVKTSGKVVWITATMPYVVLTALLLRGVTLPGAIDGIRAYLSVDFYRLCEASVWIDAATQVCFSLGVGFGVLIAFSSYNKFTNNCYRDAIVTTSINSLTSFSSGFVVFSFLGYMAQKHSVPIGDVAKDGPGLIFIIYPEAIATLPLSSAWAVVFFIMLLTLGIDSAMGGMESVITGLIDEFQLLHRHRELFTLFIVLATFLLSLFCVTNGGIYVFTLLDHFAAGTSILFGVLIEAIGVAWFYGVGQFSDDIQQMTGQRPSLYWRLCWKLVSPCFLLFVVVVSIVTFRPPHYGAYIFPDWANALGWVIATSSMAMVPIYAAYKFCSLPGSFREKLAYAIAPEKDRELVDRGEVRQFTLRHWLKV
T11 sequence (P41595 whole entry): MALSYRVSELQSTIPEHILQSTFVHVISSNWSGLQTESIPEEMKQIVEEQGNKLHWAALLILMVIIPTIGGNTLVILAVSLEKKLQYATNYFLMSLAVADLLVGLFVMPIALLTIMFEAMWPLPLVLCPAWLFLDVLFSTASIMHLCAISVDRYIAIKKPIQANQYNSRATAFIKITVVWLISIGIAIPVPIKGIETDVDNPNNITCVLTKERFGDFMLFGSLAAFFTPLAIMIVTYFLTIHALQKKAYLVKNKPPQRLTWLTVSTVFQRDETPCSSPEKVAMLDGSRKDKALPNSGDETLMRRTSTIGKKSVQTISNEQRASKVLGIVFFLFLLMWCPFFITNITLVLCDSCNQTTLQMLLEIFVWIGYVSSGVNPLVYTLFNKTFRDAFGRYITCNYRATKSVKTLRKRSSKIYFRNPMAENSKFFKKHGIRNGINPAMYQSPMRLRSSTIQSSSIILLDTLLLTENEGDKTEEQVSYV
T8 sequence (P43140 whole entry): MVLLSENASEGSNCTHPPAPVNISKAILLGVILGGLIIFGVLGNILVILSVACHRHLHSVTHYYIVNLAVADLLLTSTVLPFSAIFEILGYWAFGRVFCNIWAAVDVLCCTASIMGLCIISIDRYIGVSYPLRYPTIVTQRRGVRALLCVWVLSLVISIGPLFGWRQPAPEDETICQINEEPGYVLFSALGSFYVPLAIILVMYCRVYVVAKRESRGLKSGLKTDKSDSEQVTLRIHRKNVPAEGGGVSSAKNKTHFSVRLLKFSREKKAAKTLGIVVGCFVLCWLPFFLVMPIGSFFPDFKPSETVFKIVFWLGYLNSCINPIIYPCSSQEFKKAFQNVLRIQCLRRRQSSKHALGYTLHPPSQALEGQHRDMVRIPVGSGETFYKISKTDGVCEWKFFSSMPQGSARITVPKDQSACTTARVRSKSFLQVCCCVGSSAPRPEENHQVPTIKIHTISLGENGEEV
T13 sequence (P15823 whole entry): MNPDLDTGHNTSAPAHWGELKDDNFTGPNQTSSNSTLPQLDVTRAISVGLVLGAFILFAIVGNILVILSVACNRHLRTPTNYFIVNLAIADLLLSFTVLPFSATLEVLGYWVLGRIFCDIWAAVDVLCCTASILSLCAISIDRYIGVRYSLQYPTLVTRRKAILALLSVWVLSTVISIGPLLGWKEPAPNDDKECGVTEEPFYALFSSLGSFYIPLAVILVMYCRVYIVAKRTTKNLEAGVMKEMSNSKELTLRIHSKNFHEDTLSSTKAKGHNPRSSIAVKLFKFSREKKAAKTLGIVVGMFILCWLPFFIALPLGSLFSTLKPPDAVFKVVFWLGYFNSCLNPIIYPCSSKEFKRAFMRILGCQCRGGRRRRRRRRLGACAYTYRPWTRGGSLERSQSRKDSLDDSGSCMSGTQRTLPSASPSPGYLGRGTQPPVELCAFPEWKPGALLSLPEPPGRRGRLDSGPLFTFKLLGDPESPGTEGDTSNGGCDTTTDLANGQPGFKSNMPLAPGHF
T17 sequence (P21728 whole entry): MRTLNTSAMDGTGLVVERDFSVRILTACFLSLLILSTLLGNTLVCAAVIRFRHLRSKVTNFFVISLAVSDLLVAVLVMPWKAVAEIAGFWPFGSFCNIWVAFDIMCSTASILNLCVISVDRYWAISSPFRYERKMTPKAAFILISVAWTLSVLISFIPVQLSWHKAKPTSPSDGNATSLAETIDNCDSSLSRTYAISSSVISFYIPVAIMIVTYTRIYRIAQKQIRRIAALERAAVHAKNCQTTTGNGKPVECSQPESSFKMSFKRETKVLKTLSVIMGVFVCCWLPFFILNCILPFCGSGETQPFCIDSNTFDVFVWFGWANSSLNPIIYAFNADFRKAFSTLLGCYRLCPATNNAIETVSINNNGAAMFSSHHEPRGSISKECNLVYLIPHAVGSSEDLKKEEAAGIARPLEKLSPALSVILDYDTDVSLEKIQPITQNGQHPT
T5 sequence (Q5U3Y7 whole entry): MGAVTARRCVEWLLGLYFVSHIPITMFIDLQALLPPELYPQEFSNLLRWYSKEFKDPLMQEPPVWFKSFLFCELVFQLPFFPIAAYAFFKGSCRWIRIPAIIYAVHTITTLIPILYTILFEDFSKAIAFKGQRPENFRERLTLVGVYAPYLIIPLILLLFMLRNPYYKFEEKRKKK
T4 sequence (Q99720 whole entry): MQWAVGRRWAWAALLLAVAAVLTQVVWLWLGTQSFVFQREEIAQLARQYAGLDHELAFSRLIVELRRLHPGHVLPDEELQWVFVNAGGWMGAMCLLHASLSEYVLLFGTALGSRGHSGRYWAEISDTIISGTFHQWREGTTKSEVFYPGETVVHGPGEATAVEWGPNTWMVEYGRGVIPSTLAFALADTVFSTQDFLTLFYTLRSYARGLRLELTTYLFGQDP

CN1CCc2c(c3ccccc3n2Cc2ccccc2)C1 [formula 1, 3-methyl-9-benzyl-1,2,3,4-tetrahydrocarboline naphthalene-1,5-disulfonate]
% of radioactive-labeled ligand replacement (dopamine D2L): 51% | % of radioactive-labeled ligand replacement [1]: 65% | % of radioactive-labeled ligand replacement (dopamine D3): 80% | % of radioactive-labeled ligand replacement [2]: 99% | % of radioactive-labeled ligand replacement (sigma σ1): 75% | % of radioactive-labeled ligand replacement (sigma σ2): 52% | % of radioactive-labeled ligand replacement (dopamine D2S): 60% | % of radioactive-labeled ligand replacement (serotonin 5-HT7): 76% | % of radioactive-labeled ligand replacement (sodium channel, site 2): 93% | % of radioactive-labeled ligand replacement (adrenergic α1A): 70% | % of radioactive-labeled ligand replacement (histamine H2): 97% | % of radioactive-labeled ligand replacement (serotonin 5-HT1B): 64* % | % of radioactive-labeled ligand replacement (serotonin 5-HT2B): 52% | % of radioactive-labeled ligand replacement [3]: 67% | % of radioactive-labeled ligand replacement (adrenergic α1B): 70% | % of radioactive-labeled ligand replacement (serotonin 5-HT2C): 79% | % of radioactive-labeled ligand replacement (adrenergic α2A): 100% | % of radioactive-labeled ligand replacement (adrenergic β2): 76% | anxiolytic (tranquilizing) action (male mice of BALB/c line): anxiolytic (tranquilizing) activity comparable with the activity of Buspirone and Lorazepam | % of radioactive-labeled ligand replacement (dopamine D1): 62% | % of radioactive-labeled ligand replacement (serotonin 5-HT6): 79% | % of radioactive-labeled ligand replacement (histamine H1): 97%
